Results published in US20230391772A1, “METHODS AND COMPOSITIONS FOR TARGETED PROTEIN DEGRADATION” (Ranok Therapeutics (Hangzhou) Co. Ltd., priority 2020, published 2023).

Legend:
HSP90a protein = biological target: T1, HSP90a protein (Homo sapiens, UniProt P07900); assay: HSP90α-binding fluorescent polarization (FP) assay, BODIPY-labeled RNK04010 probe; details: FP competition with RNK04010 (BODIPY-labeled), 5 nM, 300 min at 25° C.
T1 construct: purchased BPS Bioscience 50298
Outline: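 Compounds (20 μM down to 5.2 nM, 2.5-fold steps) compete with a 5 nM fluorescent tracer for N-terminal HSP90a, measured by fluorescence polarization. With FITC-geldanamycin, plates sit 120 min at 25 °C. With BODIPY-RNK04010, they sit 300 min at 25 °C.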

[1] = system: NCI-H358 human non-small cell lung cancer; assay: NCI-H358 CCK-8 proliferation assay; type: cell-based; details: NCI-H358 cells, 72 hr
Procedure: The following cancer cell lines were employed: BT-474 human breast carcinoma (ATCC, #HTB-20); MIA PaCa-2 human pancreatic carcinoma [2 copies KRAS(G12C)](ATCC, #CRL-1420); NCI-H23 human non-small cell lung cancer [1 copy KRAS(G12C)](ATCC, #CRL-5800); NCI-H358 human non-small cell lung cancer [1 copy KRAS(G12C)](ATCC, #CRL-5807); LU65A human lung carcinoma (Pharmaron, Beijing, China). Cell lines were cultured essentially according to ATCC and Pharmaron recommendations.
Cancer Cell Line Proliferation (CCK-8) Assays
3-fold serial dilutions of each test compound were prepared ranging from 20 μM to 1.02 nM.
% Inhibition=100−(D−B)/(S−B)*100%. • S: Absorbance of cells treated with DMSO • D: Absorbance of compound-treated cells • B: Absorbance of medium with DMSO without cells

| IC50 (HSP90a protein) [nM] | EC50 [1] [nM] | Structure (SMILES) |
| --- | --- | --- |
| 100 to 1000 | > 1000 | C=CC(=O)N1CCN(c2nc(NCCC(=O)NCCc3ccc(-n4c(O)nnc4-c4cc(C(C)C)c(O)cc4O)cc3)nc3c2CCN(c2cccc4ccccc24)C3)C[C@H]1CC#N [Compound 85, (R)-3-((4-(4-acryloyl-3-(cyanomethyl)piperazin-1-yl)-7-(naphthalen-1-yl)-5,6,7,8-tetrahydropyrido[3,4-d]pyrimidin-2-yl)amino)-N-(4-(3-(2,4-dihydroxy-5-isopropylphenyl)-5-hydroxy-4H-1,2,4-triazol-4-yl)phenethyl)propanamide, trifluoroacetic acid] |
| 100 to 1000 | > 1000 | CCC(=O)N1CCN(c2nc(NCCC(=O)NCc3ccc(-n4c(O)nnc4-c4cc(C(C)C)c(O)cc4O)cc3F)nc3c2CCN(c2cc(O)cc4ccccc24)C3)CC1 [Compound 33, N-(4-(3-(2,4-dihydroxy-5-isopropylphenyl)-5-hydroxy-4H-1,2,4-triazol-4-yl)-2-fluorobenzyl)-3-((7-(3-hydroxynaphthalen-1-yl)-4-(4-propionylpiperazin-1-yl)-5,6,7,8-tetrahydropyrido[3,4-d]pyrimidin-2-yl)amino)propanamide, trifluoroacetic acid] |
| > 1000 | > 1000 | CCc1cc(-c2nnc(O)n2-c2ccc(CNC(=O)CCNc3nc4c(c(N5CCN(C(C)=O)CC5)n3)CCN(c3cc(O)cc5ccccc35)C4)c(F)c2)c(O)cc1O [Compound 43, 3-((4-(4-acetylpiperazin-1-yl)-7-(3-hydroxynaphthalen-1-yl)-5,6,7,8-tetrahydropyrido[3,4-d]pyrimidin-2-yl)amino)-N-(4-(3-(5-ethyl-2,4-dihydroxyphenyl)-5-hydroxy-4H-1,2,4-triazol-4-yl)-2-fluorobenzyl)propanamide] |
| 100 to 1000 | > 1000 | CCC(=O)N1CCN(c2nc(NCCC(=O)N3CCC(Cc4ccc(-n5c(O)nnc5-c5cc(C(C)C)c(O)cc5O)cc4)CC3)nc3c2CCN(c2cc(O)cc4ccccc24)C3)CC1 [Compound 38, 1-(4-(4-(3-(2,4-dihydroxy-5-isopropylphenyl)-5-hydroxy-4H-1,2,4-triazol-4-yl)benzyl)piperidin-1-yl)-3-((7-(3-hydroxynaphthalen-1-yl)-4-(4-propionylpiperazin-1-yl)-5,6,7,8-tetrahydropyrido[3,4-d]pyrimidin-2-yl)amino)propan-1-one, trifluoroacetic acid] |
| 100 to 1000 | > 1000 | C=CC(=O)N1CCN(c2nc(NCCC(=O)NCc3ccc(-n4c(O)nnc4-c4cc(C(C)C)c(O)cc4O)cc3)nc3c2CCN(c2cc(O)cc4ccccc24)C3)CC1 [Compound 7, 3-((4-(4-acryloylpiperazin-1-yl)-7-(3-hydroxynaphthalen-1-yl)-5,6,7,8-tetrahydropyrido[3,4-d]pyrimidin-2-yl)amino)-N-(4-(3-(2,4-dihydroxy-5-isopropylphenyl)-5-hydroxy-4H-1,2,4-triazol-4-yl)benzyl)propanamide, trifluoroacetic acid] |
| 100 to 1000 | > 1000 | C=CC(=O)N1CCN(c2nc(NCCC(=O)NCc3ccc(-n4c(O)nnc4-c4cc(C(C)C)c(O)cc4O)cc3F)nc3c2CCN(c2cc(O)cc4ccccc24)C3)CC1 [Compound 47, 3-((4-(4-acryloylpiperazin-1-yl)-7-(3-hydroxynaphthalen-1-yl)-5,6,7,8-tetrahydropyrido[3,4-d]pyrimidin-2-yl)amino)-N-(4-(3-(2,4-dihydroxy-5-isopropylphenyl)-5-hydroxy-4H-1,2,4-triazol-4-yl)-2-fluorobenzyl)propenamide] |
| > 1000 | > 1000 | C=CC(=O)N1CCN(c2nc(NCCC(=O)N3CCN(Cc4ccc5c(c4)CN(C(=O)c4cc(CCC)c(O)cc4O)C5)CC3)nc3c2CCN(c2cc(O)cc4ccccc24)C3)CC1 [Compound 94, 1-(4-(2-((3-(4-((2-(2,4-dihydroxy-5-propylbenzoyl)isoindolin-5-yl)methyl)piperazin-1-yl)-3-oxopropyl)amino)-7-(3-hydroxynaphthalen-1-yl)-5,6,7,8-tetrahydropyrido[3,4-d]pyrimidin-4-yl)piperazin-1-yl)prop-2-en-1-one, trifluoroacetic acid] |
